According to ChEMBL document CHEMBL1201862, “PubChem BioAssay data set” (2004):
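48-hour exposure; five concentrations; linearly interpolated endpoints. The concentration for 50% growth inhibition is given as GI50.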 Calls of active or inactive are those of the source. Rule as the data show it: active = GI50 up to about 1.1 µM and inactive = higher. Peptide text beside a SMILES is read from it. * marks the point of attachment. Boc = CC(C)(C)OC(=O)*

What was measured:
Assay in all cases: NCI anticancer screen, dose series, 48 h
[1] = test system: A549
[2] = test system: CCRF-CEM
[3] = test system: EKVX
[4] = test system: HCT-15
[5] = test system: HL-60
[6] = test system: HOP-62
[7] = test system: K562
[8] = test system: KM12
[9] = test system: MOLT-4
[10] = test system: Malme-3M
[11] = test system: NCI-H23
[12] = test system: NCI/ADR-RES
[13] = test system: OVCAR-8
[14] = test system: PC-3
[15] = test system: SF-295
[16] = test system: SK-MEL-2
[17] = test system: SNB-75
[18] = test system: SR
[19] = test system: SW-620
[20] = test system: UACC-257

In the case of CN(C)CCOc1ccc2[nH]c(C(=O)N3CC(CCl)c4c3cc(NC(=O)OCc3ccc([N+](=O)[O-])cc3)c3ccccc43)cc2c1 (stereo not given), the GI50 [1] is reported as 1.24 µM (inactive), the GI50 [2] is reported as 0.162 µM (active) and the GI50 [3] is reported as 1.73 µM (inactive). The GI50 [4] was 1.55 µM, the GI50 [5] was 0.269 µM (active) and the GI50 [6] was 1.47 µM (inactive). The GI50 [7] was 0.237 µM (active), the GI50 [8] was 1.29 µM (inactive) and the GI50 [9] was 0.538 µM (active). For the same molecule, the GI50 [10] was 1.47 µM (inactive), the GI50 [11] was 1.36 µM (inactive) and the GI50 [12] was 1.34 µM (inactive). For the same molecule, the GI50 [13] was 0.483 µM (active), the GI50 [14] was 1.46 µM (inactive) and the GI50 [15] was 1.6 µM (inactive). The GI50 [16] was 2.14 µM (inactive), the GI50 [17] was 1.63 µM (inactive) and the GI50 [18] was 0.533 µM (active). The GI50 [19] was 1.19 µM (inactive) and the GI50 [20] was 14.6 µM (inactive).

CC(NC(=O)OC(C)(C)C)C(=O)NC(Cc1ccccc1)C(=O)NCC(=O)O (stereo not drawn) (Boc-Ala-Phe-Gly-OH; configuration not given here) was tested, and the GI50 [1] was > 100 µM (inactive), the GI50 [2] was > 100 µM (inactive) and the GI50 [3] was > 100 µM (inactive). For the same molecule, the GI50 [4] was over 100 µM, the GI50 [5] was > 100 µM (inactive) and the GI50 [6] was > 100 µM (inactive). For the same molecule, the GI50 [7] was > 100 µM (inactive), the GI50 [8] was > 100 µM (inactive) and the GI50 [9] was > 100 µM (inactive). For the same molecule, the GI50 [10] was > 100 µM (inactive), the GI50 [11] was > 100 µM (inactive) and the GI50 [12] was > 100 µM (inactive). The GI50 [13] was > 100 µM (inactive), the GI50 [14] was > 100 µM (inactive) and the GI50 [15] was > 100 µM (inactive). For the same molecule, the GI50 [16] was > 100 µM (inactive), the GI50 [17] was > 100 µM (inactive) and the GI50 [18] was > 100 µM (inactive). For the same molecule, the GI50 [19] was > 100 µM (inactive) and the GI50 [20] was > 100 µM (inactive).

In the case of CCCC#CCOC(=O)c1cc([N+](=O)[O-])cc([N+](=O)[O-])c1, the GI50 [1] is reported as > 100 µM (inactive), the GI50 [2] is reported as > 100 µM (inactive) and the GI50 [3] is reported as > 100 µM (inactive). For the same molecule, the GI50 [4] was over 100 µM, the GI50 [5] was > 100 µM (inactive) and the GI50 [6] was > 100 µM (inactive). The GI50 [7] was > 100 µM (inactive), the GI50 [8] was > 100 µM (inactive) and the GI50 [9] was > 100 µM (inactive). The GI50 [10] was 19.9 µM (inactive), the GI50 [11] was > 100 µM (inactive) and the GI50 [12] was > 100 µM (inactive). The GI50 [13] was > 100 µM (inactive), the GI50 [14] was > 100 µM (inactive) and the GI50 [15] was > 100 µM (inactive). For the same molecule, the GI50 [16] was > 100 µM (inactive), the GI50 [17] was > 100 µM (inactive) and the GI50 [18] was > 100 µM (inactive). The GI50 [19] was > 100 µM (inactive) and the GI50 [20] was > 100 µM (inactive).

For O=C(c1cccs1)N(C(=O)N1CCN(c2ccccc2)CC1)S(=O)(=O)c1ccccc1, the GI50 [1] was 32.8 µM (inactive), the GI50 [2] was 20.8 µM (inactive) and the GI50 [3] was 16.7 µM (inactive). For the same molecule, the GI50 [4] was 28.5 µM, the GI50 [5] was 19.4 µM (inactive) and the GI50 [6] was 29.6 µM (inactive). The GI50 [7] was 25.1 µM (inactive), the GI50 [8] was 31.4 µM (inactive) and the GI50 [9] was 20.2 µM (inactive). For the same molecule, the GI50 [10] was 19.8 µM (inactive), the GI50 [11] was 24 µM (inactive) and the GI50 [12] was 24 µM (inactive). The GI50 [13] was 18.6 µM (inactive), the GI50 [14] was 29 µM (inactive) and the GI50 [15] was 28.1 µM (inactive). For the same molecule, the GI50 [16] was 18.7 µM (inactive), the GI50 [17] was 14.2 µM (inactive) and the GI50 [18] was 21.8 µM (inactive). The GI50 [19] was 31.5 µM (inactive) and the GI50 [20] was 23.8 µM (inactive).
